Measurements as given in patent publication US11000458B2, “Method and product for producing formulations containing ceramide” (Evonik Operations GmbH, priority 2017, dated 2021).

Assay: Minimum required dissolution temperature of ceramide NP in oils
Format: physicochemical
Protocol: The minimum required dissolution temperature for 0.1 g of ceramide NP in 20 g of various oils was determined.

required dissolution temperatures (0.1 g of ceramide NP in 20 g Caprylic/Capric Triglycerides (TEGOSOFT ® CT)): 95 °C
required dissolution temperatures (0.1 g of ceramide NP in 20 g Ethylhexyl Stearate (TEGOSOFT ® OS)): 100 °C
required dissolution temperatures (0.1 g of ceramide NP in 20 g Persea gratissima (Avocado) oil): 100 °C
Substance: Ceramide NP
